Data: US4666892A, “Method and composition for hepatitis treatment with pyrimidine nucleoside compounds” (Sloan-Kettering Memorial Cancer Center, priority 1986, dated 1987)
Values after ≈ are worked out from the molar mass of the structure shown. Where two headings read alike, the source gives them in different places. One block for each molecule: values may come before it.

What was measured:
[1] = target: T1, HBV DNA polymerase (Hepatitis B virus genotype D subtype ayw, UniProt P03156); test: HBV endogenous DNA polymerase assay, inhibition by nucleoside triphosphate analogs; format: biochemical, hepatitis B virion (HBV); settings: for ID50 relative to ID50 of FIACTP: times more than FIACTP; for Nature of inhibition (Lineweaver-Burk plots): versus dGTP (ACVTP), dCTP (FIACTP), dTTP (BVdUTP); for Relative efficiency as inhibitor of HBV DNA polymerase: excess of nucleotides (50 uM)
T1 construct: HBV particles containing DNA polymerase activity were purified from the serum of an immunosuppressed patient; from tissue; host or cells: virus particles purified from the serum of an HBsAg-positive immunosuppressed patient
T1 sequence (P03156 whole entry): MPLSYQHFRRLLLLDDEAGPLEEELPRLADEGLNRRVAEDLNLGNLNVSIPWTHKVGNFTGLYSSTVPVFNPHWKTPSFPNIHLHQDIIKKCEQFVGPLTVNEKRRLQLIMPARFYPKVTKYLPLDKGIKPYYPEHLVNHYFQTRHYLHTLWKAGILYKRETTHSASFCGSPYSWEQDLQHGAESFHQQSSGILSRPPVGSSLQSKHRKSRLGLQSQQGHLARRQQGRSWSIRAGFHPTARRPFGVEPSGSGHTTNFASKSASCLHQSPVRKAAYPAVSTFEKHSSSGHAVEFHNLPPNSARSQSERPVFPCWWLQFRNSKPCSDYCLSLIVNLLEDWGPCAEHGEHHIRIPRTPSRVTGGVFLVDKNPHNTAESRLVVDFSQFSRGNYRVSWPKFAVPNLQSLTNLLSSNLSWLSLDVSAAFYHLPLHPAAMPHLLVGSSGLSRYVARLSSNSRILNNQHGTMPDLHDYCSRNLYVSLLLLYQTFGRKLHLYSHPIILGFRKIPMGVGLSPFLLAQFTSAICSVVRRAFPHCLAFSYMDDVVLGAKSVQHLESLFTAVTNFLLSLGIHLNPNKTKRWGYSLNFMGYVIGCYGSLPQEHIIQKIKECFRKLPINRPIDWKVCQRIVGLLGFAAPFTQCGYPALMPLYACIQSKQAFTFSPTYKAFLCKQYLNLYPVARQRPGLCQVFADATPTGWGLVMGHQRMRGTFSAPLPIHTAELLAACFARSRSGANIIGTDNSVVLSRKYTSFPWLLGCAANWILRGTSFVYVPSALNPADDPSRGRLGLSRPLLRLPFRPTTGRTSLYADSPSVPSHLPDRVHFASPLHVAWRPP
Source text: (§1) HBV particles containing DNA polymerase activity were purified from the serum of an immunosuppressed patient, positive for HBsAg. WHV was obtained from a serum pool of five woodchucks (Marmota monax) chronic carriers of the virus. The woodchucks initially imported from Pennsylvania (Dutchland Lab. Pennsylvania, USA) belonged to a colony followed for over one year by serological tests (Hantz et al, J. Virol. Metho. 7, 45-55 (1983)).
(§2) Virus was purified by centrifugation on sucrose and isopycnic CsCl gradients. (Hantz et al submitted for publication).
(§3) DNA polymerase was assayed as described by Kaplan et al (J. Virol., 12, 995 (1973)) with minor modification. The assay was performed in a 50 ul reaction mixture containing 50 mM Tris-HCl pH=7,6,40 mM MgC12, 60 mM NH4 Cl, 100 uM each dATP, dCTP and dGTP, 0.2-0.7 uM [^3 H] dTTP (30 Ci/mmol), 10 mM 2-mercaptoethanol, 0.5% Nonidet P 40 and enzyme. The reaction was started by addition of the virus particles with 2-mercaptoethanol and Nonidet P 40. Incubation was at 37° C. for 1 h. Acid insoluble radioactive material was collected on a glass fiber filter (GF/C Whatman) Filters were washed 5 times with cold 5% trichloracetic acid containing 10 mM sodium pyrophosphate, then with 95% ethanol. Radioactivity of the dried filter was measured in a liquid scintillation counter.
(§4) The relative sensitivities of both enzymes to CVTP, FIACTP and BVdUTP were compared using an excess of nucleotides. For each inhibitor, the concentration of the corresponding radioactive triphosphate was maintained at 2 to 3 times the Km value while the remaining nucleotides were in great excess (50 uM).
(§5) Although the mode of action for the various compounds is known to be different, the nature of ACVTP, FIACTP and BVdUTP inhibition of viral DNA synthesis catalyzed by HBV and WHV DNA polymerases was examined by determining the extent of inhibition with increasing concentrations of the substrates. In assays with ACVTP, [^3 H] dGTP was the rate limiting substrate while the other three nucleotides were in excess. The same conditions were used with [^3 H] dCTP for FIACTP and [^3 H] dTTP for BVdUTP inhibition. […] Similar results were obtained for WHV DNA polymerase.

[2] = target: T1, HBV DNA polymerase; test: Time course of viral DNA synthesis with the analog as alternate substrate; format: biochemical, hepatitis B virion (HBV); settings: for Viral DNA syntheses with dTTP substituted by the analog: [3H] dATP labelled substrate; for DNA synthesis when the natural triphosphate is substituted by the analog: ara-TTP for dTTP, ara-CTP for dCTP, ACVTP for dGTP
Description: as §3
The [^32 p] DNA product by the endogenous DNA polymerase reaction was analysed by agarose gel electrophoresis as described by Summers et al (Proc. Natl. Acad. Sci. U.S.A. 72, 4597-4601 (1975)). The reaction was made in 15 ul of the standard DNA polymerase mixture with 1 uM of [^32 p] dCTP (500 Ci/mmol) as labelled nucleotide.
After 2 h incubation at 37° C., the reaction was terminated by the addition of 20 ul of 10 mM Tris, 10 mM EDTA, 0, 1 mg per ml of proteinase K, 0, 1% (wt/vol) sodium dodecyl sulfate, followed by further incubation for 60 mn at 37° C. 5 ul of 5% (wt/vol) sucrose, 1% bromophenol blue was added, the entire mixture was heated for […] at 65° C., immediately colded at 4° C. and then analyzed by electrophoresis on a horizontal slab gel of 1% agarose. After electrophoresis, the gel was dried and developed by autoradiography.
To determine the effect of the three analogs on viral DNA synthesis, a time course experiment was performed with HBV DNA polymerase. [^3 ] dATP was used as the labelled substrate. […] The substitution of dTTP by BVdUTP permitted the viral DNA syntheses up to 46 percent of the control after 3 h of reaction. This value increased to 67 percent of the optimal activity after 4 h of reaction. […] The DNA synthesized with BVdUTP as alternate substrate was analyzed by agarose gel electrophoresis.

[3] = target: T2, WHV DNA polymerase (Woodchuck hepatitis B virus, UniProt P03160); test: WHV endogenous DNA polymerase assay, inhibition by nucleoside triphosphate analogs; format: biochemical; settings: for ID50 relative to ID50 of FIACTP: times more than FIACTP; for Affinity of WHV DNA polymerase to the analog compared with HBV DNA polymerase: WHV versus HBV DNA polymerase
T2 construct: WHV was obtained from a serum pool of five woodchucks (Marmota monax) chronic carriers of the virus; from tissue; host or cells: virus particles purified from a serum pool of five chronically infected woodchucks (imported from Pennsylvania)
T2 sequence (P03160 whole entry): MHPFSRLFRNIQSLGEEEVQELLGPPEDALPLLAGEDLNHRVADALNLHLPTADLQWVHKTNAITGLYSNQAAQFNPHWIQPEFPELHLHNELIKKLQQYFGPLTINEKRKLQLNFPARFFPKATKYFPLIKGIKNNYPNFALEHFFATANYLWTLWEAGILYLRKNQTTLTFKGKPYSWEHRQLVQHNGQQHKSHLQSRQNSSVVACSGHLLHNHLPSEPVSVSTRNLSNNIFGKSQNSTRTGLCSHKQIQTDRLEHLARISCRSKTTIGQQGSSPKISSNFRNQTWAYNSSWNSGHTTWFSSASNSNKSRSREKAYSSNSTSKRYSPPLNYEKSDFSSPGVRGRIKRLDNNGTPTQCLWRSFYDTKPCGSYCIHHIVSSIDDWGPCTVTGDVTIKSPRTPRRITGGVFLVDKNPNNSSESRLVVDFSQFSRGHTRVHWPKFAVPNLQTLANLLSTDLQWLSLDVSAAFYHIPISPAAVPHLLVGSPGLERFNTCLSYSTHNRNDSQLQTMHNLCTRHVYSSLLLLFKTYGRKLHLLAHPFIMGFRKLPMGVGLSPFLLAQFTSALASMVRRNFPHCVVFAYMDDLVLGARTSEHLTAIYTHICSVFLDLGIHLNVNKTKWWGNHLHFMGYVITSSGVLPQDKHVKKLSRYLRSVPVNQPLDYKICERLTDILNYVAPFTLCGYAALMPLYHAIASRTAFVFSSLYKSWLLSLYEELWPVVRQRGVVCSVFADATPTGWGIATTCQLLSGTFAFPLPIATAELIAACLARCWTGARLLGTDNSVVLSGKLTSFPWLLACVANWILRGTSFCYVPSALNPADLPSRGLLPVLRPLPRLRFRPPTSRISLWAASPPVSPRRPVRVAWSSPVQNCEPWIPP
Source text: as §1, §2, §3, §4, §5

[4] = target: T2, WHV DNA polymerase; test: Analog as alternate substrate of WHV DNA polymerase; format: biochemical
[5] = tested on: HBV replication; settings: patients with chronic hepatitis B; Weller et al 1982, 1983; cited from earlier work
[6] = target: T1, HBV DNA polymerase; test: Time course of HBV DNA synthesis, normal substrate added after 120 min with analog; format: biochemical, hepatitis B virion (HBV); settings: for HBV DNA synthesis after addition of the normal substrate at 120 min of reaction with the analog: ACVTP 5 uM then 100 um dGTP, ara-ATP then dATP, ara-CTP then dCTP
Description: as §3
The effect of ACVTP on HBV DNA synthesis was also studied in a time course experiment ^3 H] dTTP was the labelled substrate. The reaction was initiated without dGTP or with 5 um ACVTP instead of dGTP. […] After 120 min of reaction, 100 uM of dGTP was added. In the assay without dGTP only, the addition of dGTP increased DNA synthesis as expected.

[7] = Solubility in water; format: physicochemical
Source text: These compounds are soluble in water and therefore water or water based solutions are preferred as solvents for treating patients. The solubilities are as follows:
The solubility of these compounds can be increased by adding acid or base to the aqueous solvent.

[8] = water, at 28°, read-out: Solubility

SMILES: O=c1[nH]c(=O)n([C@H]2C[C@H](O)[C@@H](COP(=O)(O)OP(=O)(O)OP(=O)(O)O)O2)cc1/C=C/Br [BVdUTP]
ID50 relative to ID50 of FIACTP ([1]; HBV DNA polymerase): 5 times
Nature of inhibition (Lineweaver-Burk plots) ([1]; HBV DNA polymerase): competitive
DNA synthesized with analog as alternate substrate (agarose gel electrophoresis) ([2]; HBV DNA): Only incomplete filling of the single stranded region
Efficiency as alternate substrate ([2]; HBV DNA polymerase): most efficient alternate substrate
Viral DNA syntheses with dTTP substituted by the analog ([2]; after 3 h of reaction): 46% of the control
Viral DNA syntheses with dTTP substituted by the analog ([2]; after 4 h of reaction): 67% of the optimal activity
ID50 relative to ID50 of FIACTP ([3]; WHV DNA polymerase): 5 times
Affinity of WHV DNA polymerase to the analog compared with HBV DNA polymerase [3]: lower affinity
DNA synthesized with analog as alternate substrate (agarose gel electrophoresis) ([4]; WHV DNA): Only incomplete filling of the single stranded region
Efficiency as alternate substrate ([4]; WHV DNA polymerase): most efficient alternate substrate

SMILES: Nc1nc2c(ncn2COCCO)c(=O)[nH]1 [ACV]
In vivo inhibition of HBV replication [5]: inhibition of HBV replication

SMILES: Nc1nc2c(ncn2COCCOP(=O)(O)OP(=O)(O)OP(=O)(O)O)c(=O)[nH]1 [ACVTP]
ID50 relative to ID50 of FIACTP ([1]; HBV DNA polymerase): 18 times
Nature of inhibition (Lineweaver-Burk plots) ([1]; HBV DNA polymerase): competitive
DNA synthesis when the natural triphosphate is substituted by the analog [2]: did not increase the polymerization process
Incorporation of [3H] dTMP with analog instead of dGTP ([6]; 5 um ACVTP instead of dGTP, first 120 min): no incorporation
HBV DNA synthesis when reaction is started with analog and dGTP together ([6]; ACVTP 5 uM and dGTP 100 uM from start): a significant DNA synthesis was observed
HBV DNA synthesis after addition of the normal substrate at 120 min of reaction with the analog [6]: no DNA synthesis was observed
ID50 relative to ID50 of FIACTP ([3]; WHV DNA polymerase): 18 times
Affinity of WHV DNA polymerase to the analog compared with HBV DNA polymerase [3]: lower affinity

SMILES: Cc1cn([C@@H]2O[C@H](COP(=O)(O)OP(=O)(O)OP(=O)(O)O)[C@@H](O)[C@@H]2O)c(=O)[nH]c1=O [ara-TTP]
DNA synthesis when the natural triphosphate is substituted by the analog [2]: no significant DNA synthesis

solubility ([7]; water with 1 eq hcl, aqueous solvent with about one molar equivalent of hydrochloric acid, read-out: Solubility with added acid): ~250 mg/mL
solubility ([7]; water, at 21°, read-out: Solubility): 7.2 mg/mL (≈ 19.4 mM)
SMILES: Nc1nc(=O)n([C@@H]2O[C@H](CO)[C@@H](O)[C@@H]2F)cc1I [FIAC, 2'-fluoro-2'-deoxy-arabinosyl-5-iodocytosine]

solubility ([7]; water, at 24°, read-out: Solubility): 66 mg/mL (≈ 254 mM)
solubility [7, 8]: 81 mg/mL (≈ 311 mM)
SMILES: Cc1cn([C@@H]2O[C@H](CO)[C@@H](O)[C@@H]2F)c(=O)[nH]c1=O [FMAU, 2'-fluoro-2'-deoxy-arabinosyl-5-methyluracil]

SMILES: Nc1ncnc2c1ncn2[C@@H]1O[C@H](COP(=O)(O)OP(=O)(O)OP(=O)(O)O)[C@@H](O)[C@@H]1O [ara-ATP]
HBV DNA synthesis after addition of the normal substrate at 120 min of reaction with the analog [6]: increased the HBV DNA synthesis

Solubility with added base ([7]; aqueous solvent with one equivalent of sodium hydroxide (sodium salt)): increased many fold
solubility [7, 8]: 4 mg/mL (≈ 10.8 mM)
SMILES: O=c1[nH]c(=O)n([C@@H]2O[C@H](CO)[C@@H](O)[C@@H]2F)cc1I [FIAU, 2'-fluoro-2'-deoxy-arabinosyl-5-iodouracil]

SMILES: Nc1nc(=O)n([C@@H]2O[C@H](COP(=O)(O)OP(=O)(O)OP(=O)(O)O)[C@@H](O)[C@@H]2F)cc1I [FIACTP]
IC50 ([1]; HBV DNA polymerase, radioactive triphosphate at 2 to 3 times Km, remaining nucleotides 50 uM, read-out: ID50 (concentration of triphosphate required to inhibit 50 percent of DNA polymerase)): 50 nM
Nature of inhibition (Lineweaver-Burk plots) ([1]; HBV DNA polymerase): competitive
Relative efficiency as inhibitor of HBV DNA polymerase [1]: most efficient inhibitor
Incorporation of [3H] dAMP with the analog instead of dCTP ([2]; after 3 h of reaction): about 10 % of the control
IC50 ([3]; WHV DNA polymerase, radioactive triphosphate at 2 to 3 times Km, remaining nucleotides 50 uM, read-out: ID50 (concentration of triphosphate required to inhibit 50 percent of DNA polymerase)): 50 nM
Affinity of WHV DNA polymerase to the analog compared with HBV DNA polymerase [3]: lower affinity

SMILES: Nc1ccn([C@@H]2O[C@H](COP(=O)(O)OP(=O)(O)OP(=O)(O)O)[C@@H](O)[C@@H]2O)c(=O)n1 [ara-CTP]
Relative efficiency as inhibitor of HBV DNA polymerase [1]: least efficient
DNA synthesis when the natural triphosphate is substituted by the analog [2]: no significant incorporation
HBV DNA synthesis after addition of the normal substrate at 120 min of reaction with the analog [6]: increased the HBV DNA synthesis
